Assay results from ChEMBL document CHEMBL1201862, “PubChem BioAssay data set” (2004).
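Values below derive from 48-hour exposures of cells grown in 96-well plates, with endpoints linearly interpolated between the two concentrations bracketing the appropriate inhibition level. GI50: concentration for 50% inhibition of growth.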 Calls of active or inactive are those of the source. Cut-off read from the data, not from the text of the source: active = GI50 up to about 1.1 µM and inactive = higher.

How the values were obtained:
Test in all cases: growth of human tumour cells (NCI), 48 h
RPMI-8226 = tested on: RPMI-8226
MCF7 = tested on: MCF7
EKVX = tested on: EKVX
MOLT-4 = tested on: MOLT-4
IGROV-1 = tested on: IGROV-1
KM12 = tested on: KM12
HL-60 = tested on: HL-60
OVCAR-5 = tested on: OVCAR-5
SK-MEL-2 = tested on: SK-MEL-2
DU-145 = tested on: DU-145
PC-3 = tested on: PC-3
MDA-MB-231 = tested on: MDA-MB-231
NCI/ADR-RES = tested on: NCI/ADR-RES
HCC 2998 = tested on: HCC 2998
SK-MEL-5 = tested on: SK-MEL-5
M14 = tested on: M14
OVCAR-8 = tested on: OVCAR-8
A549 = tested on: A549
SW-620 = tested on: SW-620
ACHN = tested on: ACHN
HCT-116 = tested on: HCT-116
NCI-H460 = tested on: NCI-H460
SN12C = tested on: SN12C
LOX IMVI = tested on: LOX IMVI
OVCAR-4 = tested on: OVCAR-4
BT-549 = tested on: BT-549
HT-29 = tested on: HT-29
RXF 393 = tested on: RXF 393
SF-295 = tested on: SF-295
NCI-H522 = tested on: NCI-H522
CAKI-1 = tested on: CAKI-1
COLO 205 = tested on: COLO 205
UO-31 = tested on: UO-31
HOP-92 = tested on: HOP-92
CCRF-CEM = tested on: CCRF-CEM
SF-539 = tested on: SF-539
TK-10 = tested on: TK-10
SNB-19 = tested on: SNB-19
MDA-N = tested on: MDA-N
MDA-MB-435 = tested on: MDA-MB-435
UACC-257 = tested on: UACC-257
K562 = tested on: K562
HCT-15 = tested on: HCT-15
A498 = tested on: A498
U-251 = tested on: U-251
SK-OV-3 = tested on: SK-OV-3
NCI-H226 = tested on: NCI-H226
786-0 = tested on: 786-0
SF-268 = tested on: SF-268
NCI-H23 = tested on: NCI-H23
UACC-62 = tested on: UACC-62
Hs-578T = tested on: Hs-578T
HOP-62 = tested on: HOP-62
T47D = tested on: T47D
SNB-75 = tested on: SNB-75
SR = tested on: SR
Malme-3M = tested on: Malme-3M
OVCAR-3 = tested on: OVCAR-3
SK-MEL-28 = tested on: SK-MEL-28

What does the source list for `CCCn1c(=O)c2ccccc2[n+]2c(-c3ccc([N+](=O)[O-])cc3)csc12`?
GI50 (RPMI-8226): 18 µM (inactive); GI50 (MCF7): 29.9 µM (inactive); GI50 (EKVX): 42.7 µM (inactive); GI50 (MOLT-4): 30.6 µM (inactive); GI50 (IGROV-1): 20.3 µM (inactive); GI50 (KM12): 18.8 µM (inactive); GI50 (HL-60): 24.4 µM (inactive); GI50 (OVCAR-5): 17.8 µM (inactive); GI50 (SK-MEL-2): 35.7 µM (inactive); GI50 (DU-145): 38.9 µM (inactive); GI50 (PC-3): 18.1 µM (inactive); GI50 (MDA-MB-231): 33.7 µM (inactive); GI50 (NCI/ADR-RES): 7.67 µM (inactive); GI50 (HCC 2998): 77.4 µM (inactive); GI50 (SK-MEL-5): 18.6 µM (inactive); GI50 (M14): 35.6 µM (inactive); GI50 (OVCAR-8): 13.6 µM (inactive); GI50 (A549): 47 µM (inactive); GI50 (SW-620): 43.9 µM (inactive); GI50 (ACHN): 35.9 µM (inactive); GI50 (HCT-116): 23.8 µM (inactive); GI50 (NCI-H460): 21.9 µM (inactive); GI50 (SN12C): 41.3 µM (inactive); GI50 (LOX IMVI): 22.1 µM (inactive); GI50 (OVCAR-4): 17.9 µM (inactive); GI50 (BT-549): 33.9 µM (inactive); GI50 (HT-29): 25 µM (inactive); GI50 (RXF 393): 18.1 µM (inactive); GI50 (SF-295): 30.8 µM (inactive); GI50 (NCI-H522): 18 µM (inactive); GI50 (CAKI-1): 40.9 µM (inactive); GI50 (COLO 205): 39.9 µM (inactive); GI50 (UO-31): 18.3 µM (inactive); GI50 (HOP-92): 32.4 µM (inactive); GI50 (CCRF-CEM): 27.2 µM (inactive); GI50 (SF-539): 17.2 µM (inactive); GI50 (TK-10): > 10 µM (inactive); GI50 (SNB-19): 25.7 µM (inactive); GI50 (MDA-N): 31.3 µM (inactive); GI50 (MDA-MB-435): 38.6 µM (inactive); GI50 (UACC-257): 27.7 µM (inactive); GI50 (K562): 20.9 µM (inactive); GI50 (HCT-15): 34.3 µM; GI50 (A498): 25.2 µM (inactive); GI50 (U-251): 34.4 µM (inactive); GI50 (SK-OV-3): 36.9 µM (inactive); GI50 (NCI-H226): 29.4 µM (inactive); GI50 (786-0): 26.2 µM (inactive); GI50 (SF-268): 41.8 µM (inactive); GI50 (NCI-H23): 31 µM (inactive); GI50 (UACC-62): 32.7 µM (inactive); GI50 (Hs-578T): 23.3 µM (inactive); GI50 (HOP-62): 18.9 µM (inactive); GI50 (T47D): 30.6 µM (inactive); GI50 (SNB-75): 21.7 µM (inactive)

For `COc1ccc(N2C(=O)C3c4[nH]c5ccccc5c4C4CCC(C(C)C)CC4C3C2=O)cc1` (stereo unspecified), which GI50 (RPMI-8226) is on record?
Its GI50 is > 100 µM (inactive).

And the GI50 (MCF7)?
The GI50 was > 100 µM (inactive).

What about the GI50 (EKVX) of the same compound?
Its GI50 is > 100 µM (inactive).

What about the GI50 (MOLT-4) of the same compound?
The GI50 was > 100 µM (inactive).

And the GI50 (IGROV-1)?
The GI50 was > 100 µM (inactive).

What about the GI50 (KM12) of the same compound?
Its GI50 is > 100 µM (inactive).

And the GI50 (OVCAR-5)?
The GI50 was > 100 µM (inactive).

And the GI50 (SK-MEL-2)?
Its GI50 is > 100 µM (inactive).

And the GI50 (DU-145)?
The GI50 was > 100 µM (inactive).

What about the GI50 (PC-3) of the same compound?
The GI50 was > 100 µM (inactive).

And the GI50 (MDA-MB-231)?
Its GI50 is > 100 µM (inactive).

And the GI50 (NCI/ADR-RES)?
Its GI50 is > 100 µM (inactive).

And the GI50 (HCC 2998)?
Its GI50 is > 100 µM (inactive).

What about the GI50 (SK-MEL-5) of the same compound?
The GI50 was > 100 µM (inactive).

What about the GI50 (M14) of the same compound?
The GI50 was > 100 µM (inactive).

What about the GI50 (OVCAR-8) of the same compound?
Its GI50 is > 100 µM (inactive).

What about the GI50 (A549) of the same compound?
The GI50 was > 100 µM (inactive).

And the GI50 (SW-620)?
Its GI50 is > 100 µM (inactive).

And the GI50 (ACHN)?
The GI50 was > 100 µM (inactive).

And the GI50 (HCT-116)?
The GI50 was > 100 µM (inactive).

And the GI50 (NCI-H460)?
Its GI50 is > 100 µM (inactive).

And the GI50 (SN12C)?
The GI50 was > 100 µM (inactive).

What about the GI50 (LOX IMVI) of the same compound?
Its GI50 is > 100 µM (inactive).

What about the GI50 (OVCAR-4) of the same compound?
Its GI50 is > 100 µM (inactive).

What about the GI50 (BT-549) of the same compound?
Its GI50 is > 100 µM (inactive).

What about the GI50 (HT-29) of the same compound?
The GI50 was > 100 µM (inactive).

What about the GI50 (SF-295) of the same compound?
The GI50 was 53 µM (inactive).

And the GI50 (NCI-H522)?
The GI50 was > 100 µM (inactive).

What about the GI50 (CAKI-1) of the same compound?
The GI50 was > 100 µM (inactive).

What about the GI50 (COLO 205) of the same compound?
Its GI50 is > 100 µM (inactive).

What about the GI50 (UO-31) of the same compound?
The GI50 was > 100 µM (inactive).

And the GI50 (SR)?
Its GI50 is 40.7 µM (inactive).

And the GI50 (HOP-92)?
Its GI50 is > 100 µM (inactive).

What about the GI50 (CCRF-CEM) of the same compound?
Its GI50 is 0.343 µM (active).

What about the GI50 (Malme-3M) of the same compound?
Its GI50 is 42.9 µM (inactive).

What about the GI50 (TK-10) of the same compound?
Its GI50 is > 100 µM (inactive).

And the GI50 (SNB-19)?
Its GI50 is > 100 µM (inactive).

What about the GI50 (MDA-N) of the same compound?
Its GI50 is > 100 µM (inactive).

And the GI50 (MDA-MB-435)?
The GI50 was > 100 µM (inactive).

What about the GI50 (UACC-257) of the same compound?
Its GI50 is > 100 µM (inactive).

What about the GI50 (K562) of the same compound?
The GI50 was > 100 µM (inactive).

And the GI50 (HCT-15)?
The GI50 was greater than 100 µM.

And the GI50 (OVCAR-3)?
Its GI50 is > 100 µM (inactive).

What about the GI50 (A498) of the same compound?
The GI50 was > 100 µM (inactive).

What about the GI50 (U-251) of the same compound?
Its GI50 is 38.8 µM (inactive).

What about the GI50 (SK-OV-3) of the same compound?
Its GI50 is 37.6 µM (inactive).

And the GI50 (NCI-H226)?
Its GI50 is > 100 µM (inactive).

And the GI50 (786-0)?
The GI50 was > 100 µM (inactive).

And the GI50 (SF-268)?
Its GI50 is > 100 µM (inactive).

And the GI50 (NCI-H23)?
The GI50 was > 100 µM (inactive).

And the GI50 (UACC-62)?
Its GI50 is > 100 µM (inactive).

And the GI50 (Hs-578T)?
Its GI50 is 40.7 µM (inactive).

And the GI50 (HOP-62)?
The GI50 was 33 µM (inactive).

What about the GI50 (SK-MEL-28) of the same compound?
The GI50 was > 100 µM (inactive).

And the GI50 (T47D)?
Its GI50 is > 100 µM (inactive).

What about the GI50 (SNB-75) of the same compound?
Its GI50 is 35.2 µM (inactive).
